Where two headings read alike, the source gives them in different places.

These results are taken from US10087188B2, “Benzamide imidazopyrazine Btk inhibitors” (MERCK SHARP & DOHME CORP., priority 2014, dated 2018).

Assay [1] concerns the target BTK enzyme (recombinant full-length BTK, hBTK) (Homo sapiens (Human), UniProt Q06187). Briefly: Btk enzyme activity assay, LANCE TR-FRET. It is filed as biochemical. Conditions: 50 pM hBTK, 2 μM biotin-A5-peptide, 25 μM ATP; 60 minute compound & enzyme incubation; read-out: BTK binding IC50. Here is the method: Btk Enzyme Activity Assay Methods
BTK enzymatic activity was determined with the LANCE (Lanthanide Chelate Excite) TR-FRET (Time-resolved fluorescence resonance energy transfer) assay. […] After 60 minutes incubation with detection reagents, reaction plates were read on a PerkinElmer EnVision plate reader using standard TR-FRET protocol.
For orientation: Time-resolved FRET reads energy transfer from a long-lived donor to a nearby acceptor.

For a further assay, the system named is HeLa cells. As to the kind of experiment: [3H] Adenosine uptake assay. The settings on record: accumulation of tritiated adenosine into HeLa cells, compound concentration range 10 μM to 0.032 nM, read-out: ADU inhibition IC50 (adenosine uptake inhibition potency). It counts as cell-based. The gist of the method: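 HeLa cells in HBSS + 5% FBS preincubated 30 min at ambient temperature with compound (0.25% DMSO), then [3H]adenosine (500 nM stock) added for 60 min. Uptake measured by scintillation proximity counting; IC50 from 4-parameter fit of counts vs log concentration.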

Sequence of BTK enzyme (recombinant full-length BTK, hBTK) (Q06187 whole entry): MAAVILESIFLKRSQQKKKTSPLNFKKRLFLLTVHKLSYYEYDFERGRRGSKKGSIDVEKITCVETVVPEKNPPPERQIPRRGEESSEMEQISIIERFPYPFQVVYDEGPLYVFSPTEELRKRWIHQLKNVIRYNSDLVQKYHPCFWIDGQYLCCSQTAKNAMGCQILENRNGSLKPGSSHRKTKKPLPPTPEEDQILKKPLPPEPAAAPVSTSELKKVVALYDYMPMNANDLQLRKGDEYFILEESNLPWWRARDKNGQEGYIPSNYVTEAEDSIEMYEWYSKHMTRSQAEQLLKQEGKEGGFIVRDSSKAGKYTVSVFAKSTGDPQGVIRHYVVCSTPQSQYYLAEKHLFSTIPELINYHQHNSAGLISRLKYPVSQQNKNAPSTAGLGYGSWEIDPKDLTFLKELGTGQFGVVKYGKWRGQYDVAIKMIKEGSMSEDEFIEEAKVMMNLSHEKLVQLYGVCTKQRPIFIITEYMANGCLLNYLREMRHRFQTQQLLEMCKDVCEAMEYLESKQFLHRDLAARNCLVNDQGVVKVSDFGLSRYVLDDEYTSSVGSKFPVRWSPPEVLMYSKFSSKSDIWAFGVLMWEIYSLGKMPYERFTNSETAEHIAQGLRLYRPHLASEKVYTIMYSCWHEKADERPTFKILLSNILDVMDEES

What is called IC50 is the concentration that gives 50% inhibition. With `C[C@]1(C(=O)O)CC[C@@H](N2CCO[C@@H](c3nc(-c4ccc(C(=O)Nc5cc(C6CC6)ccn5)cc4F)c4c(N)nccn34)C2)CC1` [Example 198, cis-4-[(2R)-2-(8-amino-1-{4-[(4-cyclopropylpyridin-2-yl)carbamoyl]-2-fluorophenyl}imidazo[1,5-a]pyrazin-3-yl)morpholin-4-yl]-1-methylcyclohexanecarboxylic acid], the IC50 was 10.5 nM in assay [1] and 2030 nM in the assay on HeLa cells (Homo sapiens, HeLa).

For the compound `CCOc1cc(C(=O)Nc2cc(C(F)(F)F)ccn2)c(F)cc1-c1nc([C@@]2(C)CC[C@](C)(C(=O)O)C2)n2ccnc(N)c12` [Example 128, (1S,3S)-3-[8-amino-1-(2-ethoxy-5-fluoro-4-{[4-(trifluoromethyl)pyridin-2-yl]carbamoyl}phenyl)imidazo[1,5-a]pyrazin-3-yl]-1,3-dimethylcyclopentane carboxylic acid], the IC50 turned out to be 1.6 nM in assay [1] and 9380 nM in the assay on HeLa cells (Homo sapiens, HeLa).

As to `C[C@H]1CO[C@@H](c2nc(-c3ccc(C(=O)Nc4cc(C(F)(F)F)ccn4)cc3F)c3c(N)nccn23)CN1[C@H]1CC[C@@](C)(C(=O)O)CC1` [Example 194, cis-4-{(2R,5S)-2-[8-amino-1-(2-fluoro-4-{[4-(trifluoromethyl)pyridin-2-yl]carbamoyl}phenyl)imidazo [1,5-a]pyrazin-3-yl]-5-methylmorpholin-4-yl}-1-methylcyclohexanecarboxylic acid], the IC50 was 1.7 nM in assay [1] and 4040 nM in the assay on HeLa cells (Homo sapiens, HeLa).

With `COc1cc(C(=O)Nc2cc(C(F)(F)F)ccn2)ccc1-c1nc([C@H]2CN(C3CC(C(=O)O)C3)[C@@H](C)CO2)n2ccnc(N)c12` (stereo partly drawn) [Example 185, 3-{(2R,5S)-2-[8-amino-1-(2-methoxy-4-{[4-(trifluoromethyl)pyridin-2-yl]carbamoyl}phenyl)imidazo [1,5-a]pyrazin-3-yl]-5-methylmorpholin-4-yl}cyclobutanecarboxylic acid], the IC50 in assay [1] was 3.2 nM; in the assay with HeLa cells (Homo sapiens, HeLa) it was 5860 nM.

Take `N#Cc1ccnc(NC(=O)c2ccc(-c3nc(C45C6C7C4C4C5C6C74C(=O)O)n4ccnc(N)c34)c(F)c2)c1` (centres unmarked) [Example 76, 4-(8-amino-1-(4-((4-cyanopyridin-2-yl)carbamoyl)-2-fluorophenyl)imidazo [1,5-a]pyrazin-3-yl)cubane-1-carboxylic acid]: the IC50 in assay [1] came to 0.41 nM; with HeLa cells (Homo sapiens, HeLa), 666 nM.

Regarding `CCOc1cc(C(=O)Nc2cc(C(F)(F)F)ccn2)ccc1-c1nc([C@H]2CN(C3CCC(C)(C(=O)O)CC3)[C@@H](C)CO2)n2c(Cl)cnc(N)c12` (stereo partly drawn) [Example 189, 4-{(2R,5S)-2-[8-amino-5-chloro-1-(2-ethoxy-4-{[4-(trifluoromethyl)pyridin-2-yl]carbamoyl}phenyl)imidazo [1,5-a]pyrazin-3-yl]-5-methylmorpholin-4-yl}-1-methylcyclohexanecarboxylic acid], the IC50 in assay [1] worked out at 1.9 nM; with HeLa cells (Homo sapiens, HeLa), 4840 nM.

Turning to `CC1(C(=O)O)CCC(C)(c2nc(-c3ccc(C(=O)Nc4cc(C(F)(F)F)ccn4)cc3Cl)c3c(N)nccn23)CC1` (centres unmarked) [Example 133, 4-[8-amino-1-(2-chloro-4-{[4-(trifluoromethyl)pyridin-2-yl]carbamoyl}phenyl)imidazo[1,5-a]pyrazin-3-yl]-1,4-dimethylcyclohexane-carboxylic acid], the IC50 in assay [1] was 1 nM; with HeLa cells (Homo sapiens, HeLa) it was 5230 nM.

Take `CC(C)[C@@]1(C(=O)O)CC[C@@H](N2C[C@H](c3nc(-c4ccc(C(=O)Nc5cc(C(F)(F)F)ccn5)cc4F)c4c(N)ncc(Cl)n34)OC[C@@H]2C)C1` [Example 202, (1R,3R)-3-{(2R,5S)-2-[8-amino-5-chloro-1-(2-fluoro-4-{[4-(trifluoromethyl)pyridin-2-yl]carbamoyl}phenyl)imidazo [1,5-a]pyrazin-3-yl]-5-methylmorpholin-4-yl}-1-(1-methylethyl) cyclopentanecarboxylic acid]: the IC50 in assay [1] turned out to be 0.76 nM; with HeLa cells (Homo sapiens, HeLa), 4580 nM.

Take `Nc1nccn2c([C@H]3CC[C@H](CC(=O)O)C3)nc(-c3ccc(C(=O)Nc4cc(C(F)(F)F)ccn4)cc3)c12` [Example 51, {(1S,3S)-3-[8-amino-1-(4-{[4-(trifluoromethyl)pyridin-2-yl]carbamoyl}phenyl)imidazo[1,5-a]pyrazin-3-yl]cyclopentyl}acetic acid]: the IC50 came to 0.29 nM in assay [1] and 4000 nM in the assay with HeLa cells (Homo sapiens, HeLa).

Consider `CN1CC[C@@H](c2nc(-c3ccc(C(=O)Nc4cc(C(F)(F)F)ccn4)cc3)c3c(N)nccn23)C[C@H]1C(=O)O` [Example 82, (2S,4R)-4-[8-amino-1-(4-{[4-(trifluoromethyl)pyridin-2-yl]carbamoyl}phenyl)imidazo[1,5-a]pyrazin-3-yl]-1-methylpiperidine-2-carboxylic acid], for which the IC50 was determined as 1.2 nM in assay [1] and 1730 nM in the assay with HeLa cells (Homo sapiens, HeLa).

Turning to `CCOc1cc(C(=O)Nc2cc(C(F)(F)F)ccn2)cc(F)c1-c1nc([C@@H]2CC[C@](C)(C(=O)O)C2(C)C)n2c(F)cnc(N)c12` [Example 118, (1S,3R)-3-[8-amino-1-(2-ethoxy-6-fluoro-4-{[4-(trifluoromethyl)pyridin-2-yl]carbamoyl}phenyl)-5-fluoroimidazo[1,5-a]pyrazin-3-yl]-1,2,2-trimethylcyclopentane carboxylic acid], the IC50 in assay [1] was determined as 1.3 nM; in the assay with HeLa cells (Homo sapiens, HeLa) it was 10000 nM.

With `CCOc1cc(C(=O)Nc2cc(C(F)(F)F)ccn2)ccc1-c1nc([C@]23CC[C@](C(=O)O)(CC2O)C(O)C3)n2ccnc(N)c12` (stereo partly drawn) [Example 73, (1S,4R)-4-[8-amino-1-(2-ethoxy-4-{[4-(trifluoromethyl)pyridin-2-yl]carbamoyl}phenyl)imidazo[1,5-a]pyrazin-3-yl]-2,5-dihydroxybicyclo [2.2.2]octane-1-carboxylic acid], the IC50 was 8.8 nM in assay [1] and 3650 nM with HeLa cells (Homo sapiens, HeLa).

Turning to `CC(C)C1(C(=O)O)CCC(C)(c2nc(-c3ccc(C(=O)Nc4cc(C(F)(F)F)ccn4)cc3)c3c(N)nccn23)C1` (centres unmarked) [Example 145, 3-[8-amino-1-(4-{[4-(trifluoromethyl)pyridin-2-yl]carbamoyl}phenyl)imidazo[1,5-a]pyrazin-3-yl]-3-methyl-1-(1-methylethyl) cyclopentane-carboxylic acid], the IC50 was determined as 57.2 nM in assay [1] and 10000 nM in the assay on HeLa cells.

For `C[C@H]1CO[C@@H](c2nc(-c3ccc(C(=O)Nc4cc(C(F)F)ccn4)cc3F)c3c(N)nccn23)CN1[C@H]1CC[C@](C)(C(=O)O)CC1` [Example 208, trans-4-{(2R,5S)-2-[8-amino-1-(4-{[4-(difluoromethyl)pyridin-2-yl]carbamoyl}-2-fluorophenyl)imidazo[1,5-a]pyrazin-3-yl]-5-methylmorpholin-4-yl}-1-methylcyclohexanecarboxylic acid], the IC50 was 923 nM in assay [1] and 10000 nM in the assay on HeLa cells (Homo sapiens, HeLa).

For the compound `CCOc1cc(C(=O)Nc2cc(C(F)(F)F)ccn2)ccc1-c1nc([C@@H]2CC[C@@H](C(=O)O)O2)n2ccnc(N)c12` [Example 117, (2S,5S)-5-[8-amino-1-(2-ethoxy-4-{[4-(trifluoromethyl)pyridin-2-yl]carbamoyl}phenyl)imidazo[1,5-a]pyrazin-3-yl]tetrahydrofuran-2-carboxylic acid], the results for the IC50 (in assay [1]; in the assay with HeLa cells) were 8.7 nM and 3050 nM, respectively.

With `Nc1nccn2c(-c3cccc(C(=O)O)c3)nc(-c3ccc(C(=O)Nc4cc(C(F)(F)F)ccn4)cc3)c12` [Example 23, 3-(8-amino-1-(4-((4-(trifluoromethyl)pyridin-2-yl)carbamoyl)phenyl)imidazo[1,5-a]pyrazin-3-yl)benzoic acid], the IC50 was 0.56 nM in assay [1] and 10000 nM with HeLa cells (Homo sapiens, HeLa).
